Laboratory results published in patent US20050112573A1, “Method of detecting toxic substance” (priority 2001, published 2005).

System: yeast genes (level of expressed mRNA)
Experiment: DNA chip analysis of expressed mRNA of yeast genes after 2 h culture with a toxic chemical substance
Assay type: cell-based, Saccharomyces cerevisiae S288C
Procedure: Yeast (Saccharomyces cerevtisiae S288C (α SUC2mal mel gap2 CUP1)) were cultured at 25° C. on YPD medium (yeast extract 1%, polypepton 2%, glucose 2%). One of toxic chemical substances was added to the cell at logarithmic growth phase, and the cell was further cultured for two hours. Cell was cultured without any chemical substance in the same condition, and was used as control. Concentrations of the chemical substances were defined to inhibit the growth of the yeast but not lead to death.
After the completion of cultivation, the culture was centrifuged to collect the cells. To the cells, sodium acetate buffer (50 mM sodium acetate, 10 mM EDTA, 1% SDS) was added, and the mixture was shaken at 65° C. for five minutes, followed by returning to room temperature, and obtaining the supernatant, which procedure was repeated two times. To the supernatant, ½ amount of a solution of phenol/chloroform was added, and the mixture was centrifuged to give a supernatant, which was added with an equal amount of chloroform, and the mixture was centrifuged to give a supernatant. To the supernatant, an equal amount of isopropanol containing 0.3 M sodium acetate was added, and the mixture was allowed to stand at room temperature for 30 minutes, after which the mixture was centrifuged to give a sediment of the whole RNAs. Seventy % ethanol was added to the sediment, and the mixture was again centrifuged to give a sediment, which was then dried and dissolved in water. mRNA was isolated from the whole RNAs as followings. In view of the fact that a poly A chain is attached to the 3′ terminus of mRNA, a polynucleotide having a poly T structure which was immobilized on the surface of latex beads was used to trap the mRNA, and then the mRNA was washed and eluted with spine column (Oligotex-dT30<Super>mRNA Purification Kit, Takara). Reverse transcription of the mRNA was conducted with a reverse transcriptase (Super Script II Reverse Transcriptase; catalogue No. 18064-014, GibcoBRL) using fluorescence-labeled nucleotides to give cDNAs that were introduced with Cy3-dUTP or Cy5-dUTP during the reverse transcription.
The labeled cDNAs were dissolved in TE buffer (10 mM Tris-HCl/1 mM EDTA, pH8.0), and the solution was dropped on the DNA chip containing the whole genes of yeast (DNA Chip Research Inc. Japan) so that the cDNAs were hybridized on the DNA chip at 65° C. for over 12 hours. The fluoresces intensity of the DNA chip was read with a scanner, and the ratio relative to the fluorescence intensity resulting from the absence of chemical substance was estimated as the following, which is shown in Tables 1 to 9: [formula]
In the Tables, “Intensity” indicated in the rightmost column is a value of the level of expressed mRNA of each gene in control cells as divided by the average level of the expressions of the whole genes.

## N#Cc1c(Cl)c(Cl)c(Cl)c(C#N)c1Cl [(9), 2,4,5,6-tetrachloro-1,3-benzenedicarbonitrile]
Yeast gene YKL039W
  The level of expressed mRNA in the presence of chemical substance/The level of expressed mRNA in the absence of chemical substance: 1.3
Yeast gene YKL041W
  The level of expressed mRNA in the presence of chemical substance/The level of expressed mRNA in the absence of chemical substance: 1.6
Yeast gene YKL139W
  The level of expressed mRNA in the presence of chemical substance/The level of expressed mRNA in the absence of chemical substance: 1.6
Yeast gene YKL165C
  The level of expressed mRNA in the presence of chemical substance/The level of expressed mRNA in the absence of chemical substance: 0.4
Yeast gene YKL193C
  The level of expressed mRNA in the presence of chemical substance/The level of expressed mRNA in the absence of chemical substance: 1.0
Yeast gene YKR014C
  The level of expressed mRNA in the presence of chemical substance/The level of expressed mRNA in the absence of chemical substance: 2.4
Yeast gene YLR093C
  The level of expressed mRNA in the presence of chemical substance/The level of expressed mRNA in the absence of chemical substance: 1.5
Yeast gene YLR120C
  The level of expressed mRNA in the presence of chemical substance/The level of expressed mRNA in the absence of chemical substance: 1.8
Yeast gene YLR136C
  The level of expressed mRNA in the presence of chemical substance/The level of expressed mRNA in the absence of chemical substance: 0.9
Yeast gene YLR178C
  The level of expressed mRNA in the presence of chemical substance/The level of expressed mRNA in the absence of chemical substance: 4.3
Yeast gene YLR250W
  The level of expressed mRNA in the presence of chemical substance/The level of expressed mRNA in the absence of chemical substance: 2.7
Yeast gene YLR327C
  The level of expressed mRNA in the presence of chemical substance/The level of expressed mRNA in the absence of chemical substance: 3.0
Yeast gene YLR356W
  The level of expressed mRNA in the presence of chemical substance/The level of expressed mRNA in the absence of chemical substance: 2.3
Yeast gene YLR362W
  The level of expressed mRNA in the presence of chemical substance/The level of expressed mRNA in the absence of chemical substance: 3.5
Yeast gene YLR391W
  The level of expressed mRNA in the presence of chemical substance/The level of expressed mRNA in the absence of chemical substance: 0.4
Yeast gene YLR429W
  The level of expressed mRNA in the presence of chemical substance/The level of expressed mRNA in the absence of chemical substance: 0.9
Yeast gene YMR004W
  The level of expressed mRNA in the presence of chemical substance/The level of expressed mRNA in the absence of chemical substance: 94.2
Yeast gene YMR104C
  The level of expressed mRNA in the presence of chemical substance/The level of expressed mRNA in the absence of chemical substance: 0.6
Yeast gene YMR219W
  The level of expressed mRNA in the presence of chemical substance/The level of expressed mRNA in the absence of chemical substance: 2.3
Yeast gene YMR226C
  The level of expressed mRNA in the presence of chemical substance/The level of expressed mRNA in the absence of chemical substance: 2.6
Yeast gene YMR275C
  The level of expressed mRNA in the presence of chemical substance/The level of expressed mRNA in the absence of chemical substance: 2.4
Yeast gene YMR276W
  The level of expressed mRNA in the presence of chemical substance/The level of expressed mRNA in the absence of chemical substance: 1.8
Yeast gene YMR314W
  The level of expressed mRNA in the presence of chemical substance/The level of expressed mRNA in the absence of chemical substance: 5.9
Yeast gene YNL006W
  The level of expressed mRNA in the presence of chemical substance/The level of expressed mRNA in the absence of chemical substance: 4.0
Yeast gene YNL007C
  The level of expressed mRNA in the presence of chemical substance/The level of expressed mRNA in the absence of chemical substance: 3.0
Yeast gene YNL093W
  The level of expressed mRNA in the presence of chemical substance/The level of expressed mRNA in the absence of chemical substance: 1.7
Yeast gene YNL333W
  The level of expressed mRNA in the presence of chemical substance/The level of expressed mRNA in the absence of chemical substance: 2.3
Yeast gene YNR010W
  The level of expressed mRNA in the presence of chemical substance/The level of expressed mRNA in the absence of chemical substance: 1.7
Yeast gene YNR069C
  The level of expressed mRNA in the presence of chemical substance/The level of expressed mRNA in the absence of chemical substance: 5.5
Yeast gene YOL013C
  The level of expressed mRNA in the presence of chemical substance/The level of expressed mRNA in the absence of chemical substance: 0.8
Yeast gene YOL164W
  The level of expressed mRNA in the presence of chemical substance/The level of expressed mRNA in the absence of chemical substance: 4.9
Yeast gene YOR036W
  The level of expressed mRNA in the presence of chemical substance/The level of expressed mRNA in the absence of chemical substance: 1.2
Yeast gene YOR117W
  The level of expressed mRNA in the presence of chemical substance/The level of expressed mRNA in the absence of chemical substance: 3.5
Yeast gene YOR124C
  The level of expressed mRNA in the presence of chemical substance/The level of expressed mRNA in the absence of chemical substance: 2.0
Yeast gene YOR132W
  The level of expressed mRNA in the presence of chemical substance/The level of expressed mRNA in the absence of chemical substance: 2.8
Yeast gene YOR157C
  The level of expressed mRNA in the presence of chemical substance/The level of expressed mRNA in the absence of chemical substance: 5.7
Yeast gene YOR181W
  The level of expressed mRNA in the presence of chemical substance/The level of expressed mRNA in the absence of chemical substance: 0.6
Yeast gene YOR185C
  The level of expressed mRNA in the presence of chemical substance/The level of expressed mRNA in the absence of chemical substance: 1.9
Yeast gene YOR198C
  The level of expressed mRNA in the presence of chemical substance/The level of expressed mRNA in the absence of chemical substance: 2.4
Yeast gene YOR259C
  The level of expressed mRNA in the presence of chemical substance/The level of expressed mRNA in the absence of chemical substance: 2.7
Yeast gene YOR261C
  The level of expressed mRNA in the presence of chemical substance/The level of expressed mRNA in the absence of chemical substance: 5.5
Yeast gene YOR288C
  The level of expressed mRNA in the presence of chemical substance/The level of expressed mRNA in the absence of chemical substance: 0.9
Yeast gene YOR355W
  The level of expressed mRNA in the presence of chemical substance/The level of expressed mRNA in the absence of chemical substance: 0.1
Yeast gene YOR383C
  The level of expressed mRNA in the presence of chemical substance/The level of expressed mRNA in the absence of chemical substance: 1.2
Yeast gene YPL089C
  The level of expressed mRNA in the presence of chemical substance/The level of expressed mRNA in the absence of chemical substance: 0.4
Yeast gene YPL109C
  The level of expressed mRNA in the presence of chemical substance/The level of expressed mRNA in the absence of chemical substance: 1.2
Yeast gene YPL149W
  The level of expressed mRNA in the presence of chemical substance/The level of expressed mRNA in the absence of chemical substance: 5.6
Yeast gene YPL154C
  The level of expressed mRNA in the presence of chemical substance/The level of expressed mRNA in the absence of chemical substance: 2.8
Yeast gene YPR103W
  The level of expressed mRNA in the presence of chemical substance/The level of expressed mRNA in the absence of chemical substance: 5.5
Yeast gene YPR108W
  The level of expressed mRNA in the presence of chemical substance/The level of expressed mRNA in the absence of chemical substance: 3.7
